From PMC11497070 (Chemical Communications (Cambridge, England), 2024)
Non-standard residues stand in square brackets, D forms with d. Residues, ends and D or L forms follow the SMILES beside them. *: point of attachment. Ala(7-MeO-coumarin-4-yl) = COc1ccc2c(C[C@H](N)C(=O)O)cc(=O)oc2c1; X1 = N[C@@H](Cc1ccc(O)cc1)C(=S)N1CCC[C@H]1C(=O)*

These molecules were tested against T1, DPP-4 (Homo sapiens, UniProt P27487) (assay: DPP-4 proteolysis steady state fluorescence assay with μ-tagged probes). Details: 5 μM peptide, 2.31 ng/μL DPP-4, DPBS pH 7.6, 27 °C, fluorescence λex 325 nm / λem 390 nm, average of three replicates.
T1 construct: purchased Sigma Aldrich D3446
Format: in vitro ADME
Procedure: Phan et al. Supporting Information
4. DPP-4 Proteolysis Assays (Steady State Assays)
A 19 μL solution of 5.3 μM peptide was incubated in the absence or presence of 1 μL of 46.2 ng/μL DPP-4 (Sigma Aldrich, D3446), to final concentrations of 5 μM peptide and 2.31 ng/μL […]
For the PP-based probes (APLEPμ & ASPLEPμ), […]
additional assays were conducted at higher DPP-4 concentration of 4.62 ng/μL to improve the cleavage rate and kinetics of the thioamide probes (Figure S17B). For the μ-tagged probes, the […]
nm on the Tecan M1000 plate reader. Three replicates were performed for each assay to ensure reproducibility. These primary data are shown. At the end of the plate-reader assay, the sample was diluted to a final volume of 170 μL for validation with HPLC. MALDI MS & HPLC analysis of peptide proteolysis by DPP-4 were also done to confirm the cleavage sites, indicated by the slashes (e.g. YP/SKPµ) as summarized in Figures S14-S17, and Tables S4-S7. A Phenomenex Luna® Omega 5 µm PS C18 100 Å analytical HPLC column was used to analyze all samples using the same gradient of 20-25 % B over 35 minutes (Solvent A: 0.1% TFA in Milli-Q water; Solvent B: 0.1% TFA in acetonitrile).

T1 sequence (P27487 whole entry): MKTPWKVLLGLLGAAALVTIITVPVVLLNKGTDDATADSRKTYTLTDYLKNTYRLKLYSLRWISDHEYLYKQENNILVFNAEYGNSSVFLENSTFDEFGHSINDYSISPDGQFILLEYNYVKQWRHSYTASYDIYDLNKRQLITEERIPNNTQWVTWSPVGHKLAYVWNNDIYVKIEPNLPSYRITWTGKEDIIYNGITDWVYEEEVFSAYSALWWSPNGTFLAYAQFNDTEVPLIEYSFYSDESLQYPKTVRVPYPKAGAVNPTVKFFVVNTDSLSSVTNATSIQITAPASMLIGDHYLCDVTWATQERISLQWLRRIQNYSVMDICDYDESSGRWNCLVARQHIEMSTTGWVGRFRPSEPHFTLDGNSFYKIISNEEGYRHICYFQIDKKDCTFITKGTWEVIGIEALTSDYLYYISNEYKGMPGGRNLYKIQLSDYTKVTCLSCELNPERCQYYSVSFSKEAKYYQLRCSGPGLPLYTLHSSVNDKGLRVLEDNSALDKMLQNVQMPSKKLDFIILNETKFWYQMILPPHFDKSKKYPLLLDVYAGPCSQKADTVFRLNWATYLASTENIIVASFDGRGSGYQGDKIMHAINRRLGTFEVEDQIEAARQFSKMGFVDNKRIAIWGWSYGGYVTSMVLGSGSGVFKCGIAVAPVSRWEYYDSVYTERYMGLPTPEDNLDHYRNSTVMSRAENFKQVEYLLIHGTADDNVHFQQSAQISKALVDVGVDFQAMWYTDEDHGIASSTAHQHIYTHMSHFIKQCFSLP

Q: With `COc1ccc2c(C[C@H](NC(=O)[C@@H]3CCCN3C(=O)[C@H](CCCCN)NC(=O)[C@H](CO)NC(=O)[C@@H]3CCCN3C(=S)[C@@H](N)Cc3ccc(O)cc3)C(=O)O)cc(=O)oc2c1` [Y^sPSKPμ] (X1-SKP[Ala(7-MeO-coumarin-4-yl)]-OH) as the molecule, how does the “t1/2 of cleavage by DPP-4 (μ-labeled probe)” value read?
A: 26 min

Same assay, conditions: 5 μM peptide, 2.31 ng/μL DPP-4, DPBS pH 7.6, 27 °C, fluorescence λex 325 nm / λem 390 nm, three replicates

Q: `CC[C@H](C)[C@H](NC(=O)[C@@H]1CCCN1C(=S)[C@@H](N)Cc1ccc(O)cc1)C(=O)N[C@@H](CCCCN)C(=O)N1CCC[C@H]1C(=O)N[C@@H](Cc1cc(=O)oc2cc(OC)ccc12)C(=O)O` [Y^SPIKPμ] (X1-IKP[Ala(7-MeO-coumarin-4-yl)]-OH) was tested. Which “cleaved fold slower than the native NPY1–5 probe Y^SPSKPμ” value did it give?
A: 3 fold

Q: For `COc1ccc2c(C[C@H](NC(=O)[C@@H]3CCCN3C(=O)[C@H](CCCCN)NC(=O)[C@H](CC(C)C)NC(=O)[C@@H]3CCCN3C(=S)[C@@H](N)Cc3ccc(O)cc3)C(=O)O)cc(=O)oc2c1` [Y^SPLKPμ] (X1-LKP[Ala(7-MeO-coumarin-4-yl)]-OH), which “cleaved fold slower than the native NPY1–5 probe Y^SPSKPμ” value is on record?
A: 2 fold

Each molecule was assayed on DPP-4 (dipeptidyl Peptidase IV human, recombinant, expressed in Sf9 cells) (assay: 2.31 ng/μL DPP-4 in DPBS buffer and pH 7.6 (PP-based probes also 4.62 ng/μL)). Details: 27°C, up to 400 min.

Q: For APLEPμ, which cleaved bond is on record?
A: P-L

Q: Which cleaved bond does the source give for Y^SPIKPμ here?
A: P-I

Q: How did the cleaved bond turn out when A^SPLEPμ was run?
A: P-L

Q: For YPIKPμ, which cleaved bond is on record?
A: P-I

Q: For YPSKPμ, which cleaved bond is on record?
A: P-S

Q: For Y^SPSKPμ, which cleaved bond is on record?
A: P-S

Q: How did the cleaved bond turn out when Y^SPLKPμ was run?
A: P-L3

Q: How did the cleaved bond turn out when YPLKPμ was run?
A: P-L3
